# Source: patent US11518763B2 (SCOHIA PHARMA, INC., priority 2018, dated 2022)
# Target: T1, binding between NRF2 and KEAP1 (biotinylated human KEAP1 protein (Kelch domain), TAMRA-labeled NRF2 peptide) (Homo sapiens, UniProt Q14145)
# T1 construct: biotinylated human KEAP1 protein (Kelch domain); biotin (biotinylated)
# Test: Measurement of activity of inhibiting NRF2 binding (NRF2-KEAP1 TR-FRET)
# Conditions: inhibition rate relative to control at 100 nM test compound; TR-FRET; 60 min at room temperature; read-out: NRF2 binding inhibitory activity (at 100 nM)
# Procedure: Test Example 1: Measurement of Activity of Inhibiting NRF2 Binding
# The inhibitory activity of test compounds against the binding between NRF2 and KEAP1 was measured by Time Resolved Fluorescence Resonance Energy Transfer (TR-FRET) method. Into a 384 well plate, 2 μL of a compound, 2 μL of 2 nM solution of biotinylated human KEAP1 protein (Kelch domain), 2 μL of 14 nM solution of TAMRA-labeled NRF2 peptide (TAMRA-Abu(4)-VWYTDIRMRDWM-OH), and 2 μL of 2 nM solution of Tb-labeled streptavidin, all solutions diluted with assay buffer (25 mM HEPES, pH7.5, 150 mM NaCl, 0.01% Tween-20), were added. For some wells, the KEAP1 protein was not added to define control wells. The plate was incubated at room temperature for 60 minutes, and time-resolved fluorescence was measured with a plate reader Envision (manufactured by PerkinElmer). The inhibitory activity for each compound at a compound concentration of 100 nM were calculated as a relative activity value by setting the fluorescence intensity of control wells to which the KEAP1 protein was not added as 100% inhibition, and the fluorescence intensity of wells to which no compound was added as 0%.
# The measurement results according to the method described above (inhibition rate of signal value relative to control at 100 nM of test compound) are shown in Table 3.
# T1 sequence (Q14145 321-609 limits assumed): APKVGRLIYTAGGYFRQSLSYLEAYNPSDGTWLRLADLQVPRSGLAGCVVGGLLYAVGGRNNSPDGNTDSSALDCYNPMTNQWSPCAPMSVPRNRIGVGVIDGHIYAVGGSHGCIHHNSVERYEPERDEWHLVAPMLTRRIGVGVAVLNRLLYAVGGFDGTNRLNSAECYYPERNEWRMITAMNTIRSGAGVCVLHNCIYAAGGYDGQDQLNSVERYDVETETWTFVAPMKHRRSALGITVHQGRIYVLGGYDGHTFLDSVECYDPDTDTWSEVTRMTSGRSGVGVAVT
row,Compound,inhibition at 0.1 µM [%]
1,"Cc1c2ccc3c1nnn3CCCCCc1ccc(cc1)C(=O)N1CCc3ccc(cc3C1)C2CC(=O)O (racemic) [Example 1, [32-Methyl-20-oxo-8,9,10,21-tetraazahexacyclo[19.5.3.2^16,19.1^3,7.0^6,10.0^24,28]dotriaconta-1(26),3(32),4,6,8,16,18,24,27,30-decaen-2-yl]acetic acid]",100
2,"O=C(O)CC1c2ccc3c(c2)CN(CC3)C(=O)c2ccc(cc2)CCCCCn2nnc3cc1ccc32 (racemic) [Example 2, [20-oxo-8,9,10,21-tetraazahexacyclo[19.5.3.2^16,19.1^3,7.0^6,10.0^24,28]dotriaconta-1(26),3(32),4,6,8,16,18,24,27,30-decaen-2-yl]acetic acid]",100
3,"Cc1c2ccc3c1nnn3CCCCCc1ccc(c3c1CC(C)(C)O3)C(=O)N1CCc3ccc(cc3C1)C2CC(=O)O (racemic) [Example 8, [6,6,33-Trimethyl-2-oxo-5-oxa-1,15,16,17-tetraazaheptacyclo[22.5.3.2^3,9.1^18,22.0^4,8.0^15,19.0^27,31]pentatriaconta-3,8,16,18(33),19,21,24,26,31,34-decaen-23-yl]acetic acid]",100
4,"Cc1c2ccc3c1nnn3CCCCc1ccc(cc1)C(=O)N1CCc3ccc(cc3C1)C2CC(=O)O (racemic) [Example 13, [31-Methyl-19-oxo-8,9,10,20-tetraazahexacyclo[18.5.3.2^15,18.1^3,7.0^6,10.0^23,27]hentriaconta-1(25),3(31),4,6,8,15,17,23,26,29-decaen-2-yl]acetic acid]",99
5,"Cc1c2ccc3c1nnn3CC/C=C\CCc1ccc(cc1)C(=O)N1CCc3ccc(cc3C1)C2CC(=O)O (racemic) [Example 14, [(13Z)-33-Methyl-21-oxo-8,9,10,22-tetraazahexacyclo[20.5.3.2^17,20.1^3,7.0^6,10.0^25,29]tritriaconta-1(27),3(33),4,6,8,13,17,19,25,28,31-undecaen-2-yl]acetic acid]",79
6,"Cc1c2ccc3c1nnn3CCCCCCc1ccc(cc1)C(=O)N1CCc3ccc(cc3C1)C2CC(=O)O (racemic) [Example 15, [33-Methyl-21-oxo-8,9,10,22-tetraazahexacyclo[20.5.3.2^17,20.1^3,7.0^6,10.0^25,29]tritriaconta-1(27),3(33),4,6,8,17,19,25,28,31-decaen-2-yl]acetic acid]",100
7,"Cc1c2ccc3c1nnn3CCCOCc1ccc(cc1)C(=O)N1CCc3ccc(cc3C1)C2CC(=O)O (racemic) [Example 16, [32-Methyl-20-oxo-14-oxa-8,9,10,21-tetraazahexacyclo[19.5.3.2^16,19.1^3,7.0^6,10.0^24,28]dotriaconta-1(26),3(32),4,6,8,16,18,24,27,30-decaen-2-yl]acetic acid]",100
8,"Cc1cc2ccc1C(=O)N1CCc3ccc(cc3C1)C(CC(=O)O)c1ccc3c(nnn3CCCOC2)c1C (racemic) [Example 17, [18,32-Dimethyl-20-oxo-14-oxa-8,9,10,21-tetraazahexacyclo[19.5.3.2^16,19.1^3,7.0^6,10.0^24,28]dotriaconta-1(26),3(32),4,6,8,16,18,24,27,30-decaen-2-yl]acetic acid]",100
9,"CCc1cc2ccc1C(=O)N1CCc3ccc(cc3C1)C(CC(=O)O)c1ccc3c(nnn3CCCOC2)c1C (racemic) [Example 18, [18-Ethyl-32-methyl-20-oxo-14-oxa-8,9,10,21-tetraazahexacyclo[19.5.3.2^16,19.1^3,7.0^6,10.0^24,28]dotriaconta-1(26),3(32),4,6,8,16,18,24,27,30-decaen-2-yl]acetic acid]",100
10,"Cc1c2ccc3c1nnn3CCCOCc1ccc(c(C3CC3)c1)C(=O)N1CCc3ccc(cc3C1)C2CC(=O)O (racemic) [Example 19, [18-Cyclopropyl-32-methyl-20-oxo-14-oxa-8,9,10,21-tetraazahexacyclo[19.5.3.2^16,19.1^3,8.0^6,10.0^24,28]dotriaconta-1(26),3(32),4,6,8,16,18,24,27,30-decaen-2-yl]acetic acid]",100
11,"Cc1c2ccc3c1nnn3CCCOCc1ccc(c(OC(F)(F)F)c1)C(=O)N1CCc3ccc(cc3C1)C2CC(=O)O (racemic) [Example 20, [32-Methyl-20-oxo-18-(trifluoromethoxy)-14-oxa-8,9,10,21-tetraazahexacyclo[19.5.3.2^16,19.1^3,7.0^6,10.0^24,28]dotriaconta-1(26),3(32),4,6,8,16,18,24,27,30-decaen-2-yl] acetic acid]",100
12,"COc1cc2ccc1C(=O)N1CCc3ccc(cc3C1)C(CC(=O)O)c1ccc3c(nnn3CCCOC2)c1C (racemic) [Example 22, [18-Methoxy-32-methyl-20-oxo-14-oxa-8,9,10,21-tetraazahexacyclo[19.5.3.2^16,19.1^3,7.0^6,10.0^24,28]dotriaconta-1(26),3(32),4,6,8,16,18,24,27,30-decaen-2-yl]acetic acid]",100
13,"Cc1c2ccc3c1nnn3CCCOCc1ccc(c(C(F)(F)F)c1)C(=O)N1CCc3ccc(cc3C1)C2CC(=O)O (racemic) [Example 23, [32-Methyl-20-oxo-18-(trifluoromethyl)-14-oxa-8,9,10,21-tetraazahexacyclo[19.5.3.2^16-19.1^3,7.0^6,10.0^24,28]dotriaconta-1(26),3(32),4,6,8,16,18,24,27,30-decaen-2-yl]acetic acid]",100
14,"Cc1c2ccc3c1nnn3CCCOCc1ccc(c(Cl)c1)C(=O)N1CCc3ccc(cc3C1)C2CC(=O)O (racemic) [Example 24, [18-Chloro-32-methyl-20-oxo-14-oxa-8,9,10,21-tetraazahexacyclo[19.5.3.2^16,19.1^3,7.0^6,10.0^24,28]dotriaconta-1(26),3(32),4,6,8,16,18,24,27,30-decaen-2-yl]acetic acid]",100
15,"CCOC(=O)CC1c2ccc3c(c2)CN(CC3)C(=O)c2ccc(cc2)COCCCn2nnc3c(C)c1ccc32 (racemic) [Example 27, Ethyl [32-methyl-20-oxo-14-oxa-8,9,10,21-tetraazahexacyclo[19.5.3.2^16,19.1^3,7.0^6,10.0^24,28]dotriaconta-1(26),3(32),4,6,8,16,18,24,27,30-decaen-2-yl]acetate]",6
16,"Cc1c2ccc3c1nnn3CCCOCc1ccc(cc1)C(=O)N1CCc3ccc(cc3C1)C2C(C)(C)C(=O)O (racemic) [Example 28, 2-Methyl-2-[32-methyl-20-oxo-14-oxa-8,9,10,21-tetraazahexacyclo[19.5.3.2^16,19.1^3,7.0^6,10.0^24,28]dotriaconta-(26),3(32),4,6,8,16,18,24,27,30-decaen-2-yl]propanoic acid]",100
17,"Cc1c2ccc3c1nnn3CCCCOc1ccc(cc1)C(=O)N1CCc3ccc(cc3C1)C2CC(=O)O (racemic) [Example 30, [32-Methyl-20-oxo-15-oxa-8,9,10,21-tetraazahexacyclo[19.5.3.2^16,19.1^3,7.0^6,10.0^24,28]dotriaconta-1(26),3(32),4,6,8,16,18,24,27,30-decaen-2-yl]acetic acid]",100
18,"Cc1c2ccc3c1nnn3CCCCOc1ccc(c(F)c1)C(=O)N1CCc3ccc(cc3C1)C2CC(=O)O (racemic) [Example 31, [18-Fluoro-32-methyl-20-oxo-15-oxa-8,9,10,21-tetraazahexacyclo[19.5.3.2^16,19.1^3,7.0^6,10.0^24,28]dotriaconta-1(26),3(32),4,6,8,16,18,24,27,30-decaen-2-yl]acetic acid]",100
19,"Cc1c2ccc3c1nnn3CCCCOc1cc(F)c(c(F)c1)C(=O)N1CCc3ccc(cc3C1)C2CC(=O)O (racemic) [Example 32, [18,30-Difluoro-32-methyl-20-oxo-15-oxa-8,9,10,21-tetraazahexacyclo[19.5.3.2^16,19.1^3,7.0^6,10.0^24,28]dotriaconta-1(26),3(32),4,6,8,16,18,24,27,30-decaen-2-yl]acetic acid]",100
20,"Cc1c2ccc3c1nnn3CCCCOc1ccc(c3c1OC(C)(C)C3)C(=O)N1CCc3ccc(cc3C1)C2CC(=O)O (racemic) [Example 33, [6,6,33-Trimethyl-2-oxo-7,10-dioxa-1,15,16,17-tetraazaheptacyclo[22.5.3.2^3.9.1^18,22.0^4,8.0^15,19.0^27,31]pentatriaconta-3,8,16,18(33),19,21,24,26,31,34-decaen-23-yl]acetic acid]",100
21,"Cc1c2ccc3c1nnn3CCCCCc1cc(Cl)c(c(Cl)c1)C(=O)N1CCc3ccc(cc3C1)C2C(C)(C)C(=O)O (racemic) [Example 57, 2-[18,30-dichloro-32-methyl-20-oxo-8,9,10,21-tetrazahexacyclo[19.5.3.2^16,19.1^3,7.0^6,10.0^24,28]dotriaconta-1(26),3(32),4,6,8,16,18,24,27,30-decaen-2-yl]-2-methylpropanoic acid]",100
22,"Cc1c2ccc3c1nnn3CCCCCc1cc(Cl)c(c(Cl)c1)C(=O)N1CCc3ccc(cc3C1)C2CC(=O)O (racemic) [Example 64, [2-[18,30-dichloro-32-methyl-20-oxo-8,9,10,21-tetrazahexacyclo[19.5.3.2^16,19.1^3,7.0^6,10.0^24,28]dotriaconta-1(27),3(32),4,6,8,16(31),17,19(30),24(28),25-decaen-2-yl]acetyl]oxysodium]",100
